Results published in US20170137410A1, “FUSED CYCLOALKYL-PYRIMIDINE COMPOUNDS AND USES THEREOF” (Medivation Technologies, Inc., priority 2014, published 2017).

Tests used:
Assay type in all cases: biochemical
Trk C = Trk C (Homo sapiens, UniProt Q16288); test: HotSpot kinase assay against Trk C; settings: HotSpot 33P assay, ATP 10 μM-30 μM
Protocol: (§1) Kinase assays were performed using test compounds against a panel of Trk kinases: Trk A; Trk B; and Trk C. Each compound was tested at a concentration of 0.1 μM in single duplicate mode against the three kinases. Compounds were prepared as 10 mM stock solutions in DMSO prior to use in the assay. The control compound, staurosporine, was tested at 10 concentrations with three-fold serial dilution starting at 20 μM. IC50 values and curve fits were obtained using Prism (GraphPad Software). IC50 values were determined for staurosporine for comparison.
(§2) The screening was performed using the “HotSpot” assay platform. The assay measures the conversion of a peptide substrate to ^33P-labelled phosphorylated product. Briefly, specific kinase/substrate pairs along with required cofactors were prepared in reaction buffer. Specifically, the substrate was prepared in reaction buffer (20 mM Hepes, pH 7.5; 10 mM MgCl2; 1 mM EGTA; 0.02% Brij35; 0.02 mg/mL BSA; 0.1 mM Na3VO4; 2 mM DTT; 1% DMSO), followed by delivery of any required cofactor to the resulting substrate solution. The corresponding kinase was delivered into the substrate solution and the reaction mixture was mixed gently. Compound was delivered into the reaction mixture, followed 15-20 min later by addition of a mixture of ATP (Sigma, St. Louis Mo.) and ^33P ATP (specific activity 0.01 μCi/μL final; Perkin Elmer, Waltham, Mass.) to a final concentration of 10 μM-30 μM to initiate the reaction. Reactions were carried out at RT for 120 min, followed by spotting of the reactions onto P81 ion exchange filter paper (Whatman #3698-915; Whatman Inc., Piscataway, N.J.). Unbound phosphate was removed by extensive washing of filters in 0.75% phosphoric acid. […] The percent of enzyme inhibition was calculated based on the percent of remaining kinase activity.

activated IR = target: T1, activated IR (Homo sapiens, UniProt P06213); test: In vitro IR enzymatic assay (ADP-Glo); settings: ATP 50 μM; for inhibition at 1 µM: compound 1 μM; for inhibition at 3 µM: compound 3 μM; for inhibition at 30 µM: compound 30 μM
T1 construct: purchased Millipore 14-803
Protocol: (§3) Inhibition of IGF-1R and IR kinases by compounds described herein were tested. The IC50 values were measured in vitro using an ADP-Glo kinase assay Kit (Promega). For the IGF-1R assay, active recombinant IGF-1R (Millipore #14-802) was used at 1 ng/reaction, the substrate IGF-1R tide (Millipore #12-527) was used at 125 μM and ATP was used at 100 μM. For the IR assay, active recombinant IR (Millipore #14-803) was used at 1 ng/reaction, the substrate Axl tide (Millipore #12-516) was used at 125 μM and ATP at 50 μM. Kinase reactions in both assays were conducted at 30° C. for 20 min with increasing concentrations of the test compounds.
(§4) The assay results as the percent inhibition of binding are presented in Tables B2 and B3 for IGF-1R and IR respectively.

activated IGF-1R = target: T2, activated IGF-1R (Homo sapiens, UniProt P08069); test: In vitro IGF-1R enzymatic assay (ADP-Glo); settings: ATP 100 μM; for inhibition at 1 µM: compound 1 μM; for inhibition at 3 µM: compound 3 μM; for inhibition at 10 µM: compound 10 μM; for inhibition at 30 µM: compound 30 μM
T2 construct: purchased Millipore 14-802
Protocol: as §3, §4

Trk B = Trk B (Homo sapiens, UniProt Q16620); test: HotSpot kinase assay against Trk B; settings: HotSpot 33P assay, ATP 10 μM-30 μM
Protocol: as §1, §2

Trk A = Trk A (Homo sapiens, UniProt P04629); test: HotSpot kinase assay against Trk A; settings: HotSpot 33P assay, ATP 10 μM-30 μM
Protocol: as §1, §2

Trk C, sequence (Q16288 32-839): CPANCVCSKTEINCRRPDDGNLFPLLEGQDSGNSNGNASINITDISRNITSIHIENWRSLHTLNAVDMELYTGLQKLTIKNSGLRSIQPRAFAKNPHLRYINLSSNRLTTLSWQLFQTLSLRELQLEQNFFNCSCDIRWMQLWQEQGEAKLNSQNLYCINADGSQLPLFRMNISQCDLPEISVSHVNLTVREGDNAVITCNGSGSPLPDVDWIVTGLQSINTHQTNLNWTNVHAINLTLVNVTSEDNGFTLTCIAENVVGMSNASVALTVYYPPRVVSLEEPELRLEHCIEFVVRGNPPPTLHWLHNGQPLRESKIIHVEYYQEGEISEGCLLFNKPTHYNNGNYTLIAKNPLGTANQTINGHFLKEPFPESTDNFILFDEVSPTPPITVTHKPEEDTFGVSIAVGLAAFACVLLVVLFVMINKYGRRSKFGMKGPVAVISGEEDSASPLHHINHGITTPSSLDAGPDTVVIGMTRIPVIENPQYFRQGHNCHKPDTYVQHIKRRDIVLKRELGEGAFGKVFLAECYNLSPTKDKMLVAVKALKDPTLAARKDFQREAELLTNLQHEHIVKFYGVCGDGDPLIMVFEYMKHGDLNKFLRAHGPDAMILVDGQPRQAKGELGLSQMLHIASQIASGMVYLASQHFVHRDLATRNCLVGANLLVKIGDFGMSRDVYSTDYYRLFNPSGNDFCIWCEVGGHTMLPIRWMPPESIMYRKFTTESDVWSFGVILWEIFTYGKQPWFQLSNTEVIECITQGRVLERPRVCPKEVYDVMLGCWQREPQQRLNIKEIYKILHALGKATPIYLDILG
Trk A, sequence (P04629 33-796): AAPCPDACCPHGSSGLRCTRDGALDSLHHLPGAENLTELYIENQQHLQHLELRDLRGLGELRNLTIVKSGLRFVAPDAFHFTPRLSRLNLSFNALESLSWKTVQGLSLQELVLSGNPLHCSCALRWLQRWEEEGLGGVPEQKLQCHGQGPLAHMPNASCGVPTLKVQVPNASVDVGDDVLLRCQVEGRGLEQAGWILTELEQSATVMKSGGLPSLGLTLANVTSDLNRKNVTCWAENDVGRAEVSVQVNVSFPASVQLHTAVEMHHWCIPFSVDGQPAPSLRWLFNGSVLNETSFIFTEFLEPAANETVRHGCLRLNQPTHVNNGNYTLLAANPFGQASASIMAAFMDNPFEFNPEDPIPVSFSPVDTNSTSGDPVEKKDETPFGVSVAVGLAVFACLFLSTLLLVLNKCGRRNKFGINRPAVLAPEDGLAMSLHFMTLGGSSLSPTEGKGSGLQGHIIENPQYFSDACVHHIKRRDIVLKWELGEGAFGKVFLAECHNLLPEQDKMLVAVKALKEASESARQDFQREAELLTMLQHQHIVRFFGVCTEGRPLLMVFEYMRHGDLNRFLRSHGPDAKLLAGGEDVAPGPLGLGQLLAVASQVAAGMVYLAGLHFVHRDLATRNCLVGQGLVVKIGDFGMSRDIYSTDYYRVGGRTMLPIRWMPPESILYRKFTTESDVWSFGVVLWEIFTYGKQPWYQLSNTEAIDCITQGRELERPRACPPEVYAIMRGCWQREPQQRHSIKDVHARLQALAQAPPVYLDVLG
T1 sequence (P06213 28-1382): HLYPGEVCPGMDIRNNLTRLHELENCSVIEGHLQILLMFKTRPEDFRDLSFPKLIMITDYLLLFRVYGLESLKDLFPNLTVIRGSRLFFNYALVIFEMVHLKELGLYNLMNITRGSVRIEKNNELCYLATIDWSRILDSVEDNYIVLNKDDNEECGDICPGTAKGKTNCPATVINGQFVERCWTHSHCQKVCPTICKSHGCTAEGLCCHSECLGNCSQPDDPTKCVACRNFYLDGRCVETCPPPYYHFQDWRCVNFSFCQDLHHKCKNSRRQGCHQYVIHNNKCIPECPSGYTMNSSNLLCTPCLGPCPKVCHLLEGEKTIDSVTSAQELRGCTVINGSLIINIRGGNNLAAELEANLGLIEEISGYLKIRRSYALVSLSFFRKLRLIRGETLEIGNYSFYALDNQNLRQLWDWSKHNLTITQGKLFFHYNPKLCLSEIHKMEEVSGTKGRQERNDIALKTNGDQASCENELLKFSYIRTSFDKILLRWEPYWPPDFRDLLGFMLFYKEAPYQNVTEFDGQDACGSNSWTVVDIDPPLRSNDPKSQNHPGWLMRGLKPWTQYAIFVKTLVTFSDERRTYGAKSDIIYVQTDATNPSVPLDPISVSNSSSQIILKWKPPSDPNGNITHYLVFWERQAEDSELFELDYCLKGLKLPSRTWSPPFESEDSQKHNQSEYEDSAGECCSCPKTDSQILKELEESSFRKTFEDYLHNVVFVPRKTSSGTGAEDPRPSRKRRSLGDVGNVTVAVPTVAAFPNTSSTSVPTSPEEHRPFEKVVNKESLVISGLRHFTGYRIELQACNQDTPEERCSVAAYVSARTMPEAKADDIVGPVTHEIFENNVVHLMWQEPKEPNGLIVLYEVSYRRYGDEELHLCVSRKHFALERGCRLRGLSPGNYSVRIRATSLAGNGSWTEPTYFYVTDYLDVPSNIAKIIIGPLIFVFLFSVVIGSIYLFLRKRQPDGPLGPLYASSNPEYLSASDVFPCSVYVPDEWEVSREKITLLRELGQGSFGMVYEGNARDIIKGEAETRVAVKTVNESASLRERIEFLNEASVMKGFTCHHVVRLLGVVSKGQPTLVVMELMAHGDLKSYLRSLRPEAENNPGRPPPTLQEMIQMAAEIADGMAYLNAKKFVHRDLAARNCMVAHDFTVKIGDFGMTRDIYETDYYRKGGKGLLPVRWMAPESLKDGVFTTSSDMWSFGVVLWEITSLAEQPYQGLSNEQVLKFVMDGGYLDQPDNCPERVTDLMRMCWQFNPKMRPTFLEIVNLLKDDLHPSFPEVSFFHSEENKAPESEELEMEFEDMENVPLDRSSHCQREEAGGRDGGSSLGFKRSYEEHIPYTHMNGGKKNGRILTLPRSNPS
Trk B, sequence (Q16620 32-822): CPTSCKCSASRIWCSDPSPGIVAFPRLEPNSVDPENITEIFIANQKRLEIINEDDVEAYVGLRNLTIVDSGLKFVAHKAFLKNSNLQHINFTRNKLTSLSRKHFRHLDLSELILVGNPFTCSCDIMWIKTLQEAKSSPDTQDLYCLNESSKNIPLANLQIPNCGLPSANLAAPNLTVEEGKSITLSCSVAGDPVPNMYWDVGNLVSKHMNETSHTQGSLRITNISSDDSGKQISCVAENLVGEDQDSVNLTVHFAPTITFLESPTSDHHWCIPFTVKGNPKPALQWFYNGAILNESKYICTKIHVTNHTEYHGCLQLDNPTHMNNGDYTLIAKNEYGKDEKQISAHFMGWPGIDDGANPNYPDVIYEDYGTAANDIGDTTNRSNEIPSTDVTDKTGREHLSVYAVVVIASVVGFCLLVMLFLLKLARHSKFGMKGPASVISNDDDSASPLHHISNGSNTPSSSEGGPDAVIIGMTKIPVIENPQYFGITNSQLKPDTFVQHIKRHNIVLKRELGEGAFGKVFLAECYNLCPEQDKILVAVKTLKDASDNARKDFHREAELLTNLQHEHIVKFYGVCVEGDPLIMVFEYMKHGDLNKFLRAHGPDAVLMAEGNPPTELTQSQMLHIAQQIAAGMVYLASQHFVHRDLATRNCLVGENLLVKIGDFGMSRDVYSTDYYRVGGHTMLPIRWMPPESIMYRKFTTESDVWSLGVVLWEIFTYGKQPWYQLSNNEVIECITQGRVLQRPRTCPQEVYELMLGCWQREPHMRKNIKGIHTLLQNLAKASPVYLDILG
T2 sequence (P08069 31-1367): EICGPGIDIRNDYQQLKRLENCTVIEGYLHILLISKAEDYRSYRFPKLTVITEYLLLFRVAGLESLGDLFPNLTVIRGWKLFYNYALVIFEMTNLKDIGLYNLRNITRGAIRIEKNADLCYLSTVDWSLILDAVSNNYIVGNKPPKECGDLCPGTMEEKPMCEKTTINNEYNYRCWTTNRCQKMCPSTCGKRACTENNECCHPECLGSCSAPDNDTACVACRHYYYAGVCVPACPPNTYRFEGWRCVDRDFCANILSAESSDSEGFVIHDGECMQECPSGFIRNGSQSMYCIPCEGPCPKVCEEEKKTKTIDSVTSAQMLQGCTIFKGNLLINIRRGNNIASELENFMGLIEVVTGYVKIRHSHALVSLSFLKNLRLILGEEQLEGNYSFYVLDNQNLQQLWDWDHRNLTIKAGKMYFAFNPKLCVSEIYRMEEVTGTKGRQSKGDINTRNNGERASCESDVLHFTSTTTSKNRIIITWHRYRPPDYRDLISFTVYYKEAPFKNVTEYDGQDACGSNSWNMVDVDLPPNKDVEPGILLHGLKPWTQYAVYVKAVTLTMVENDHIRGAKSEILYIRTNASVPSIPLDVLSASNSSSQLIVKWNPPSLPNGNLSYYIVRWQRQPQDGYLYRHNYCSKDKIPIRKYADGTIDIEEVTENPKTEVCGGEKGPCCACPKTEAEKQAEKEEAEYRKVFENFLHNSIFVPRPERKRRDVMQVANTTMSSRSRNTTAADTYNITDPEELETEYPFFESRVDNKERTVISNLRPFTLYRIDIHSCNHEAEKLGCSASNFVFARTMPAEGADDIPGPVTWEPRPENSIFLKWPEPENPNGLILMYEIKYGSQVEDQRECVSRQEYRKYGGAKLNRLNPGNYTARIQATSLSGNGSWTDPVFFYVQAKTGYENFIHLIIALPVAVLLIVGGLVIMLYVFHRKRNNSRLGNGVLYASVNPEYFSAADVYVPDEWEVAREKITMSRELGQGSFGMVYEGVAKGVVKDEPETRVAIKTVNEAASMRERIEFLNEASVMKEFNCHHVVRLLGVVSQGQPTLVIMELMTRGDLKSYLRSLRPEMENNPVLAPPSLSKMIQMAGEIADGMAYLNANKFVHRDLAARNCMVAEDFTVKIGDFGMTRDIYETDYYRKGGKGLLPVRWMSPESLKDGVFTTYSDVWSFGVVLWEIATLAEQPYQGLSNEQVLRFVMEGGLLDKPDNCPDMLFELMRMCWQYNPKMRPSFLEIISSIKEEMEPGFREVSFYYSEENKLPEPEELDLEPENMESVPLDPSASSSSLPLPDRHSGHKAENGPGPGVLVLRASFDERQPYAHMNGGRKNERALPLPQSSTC

Row | Structure (SMILES) | IC50 (Trk C) | inhibition at 1 µM (activated IR) | inhibition at 3 µM (activated IR) | inhibition at 30 µM (activated IR) | inhibition at 1 µM (activated IGF-1R) | inhibition at 3 µM (activated IGF-1R) | inhibition at 10 µM (activated IGF-1R) | inhibition at 30 µM (activated IGF-1R) | IC50 (Trk B) | IC50 (Trk A)
1 | CN(C(=O)[C@@H]1CCCN1c1nc2c(c(Nc3cc(C4CCCC4)n[nH]3)n1)CCC2)c1nccs1 [70b, (2S)-1-[4-[(3-cyclopentyl-1H-pyrazol-5-yl)amino]-6,7-dihydro-5H-cyclopenta[d]pyrimidin-2-yl]-N-methyl-N-thiazol-2-yl-pyrrolidine-2-carboxamide] | 1.2 nM | 30% | 60% | 97% | 35% | 57% | 83% | 95% | 2 nM | 26 nM
2 | CN(C)C(=O)[C@H]1CCCN1c1nc2c(c(Nc3cc(C4CCOCC4)[nH]n3)n1)CCC2 [91a, (R)—N,N-dimethyl-1-(4-((5-(tetrahydro-2H-pyran-4-yl)-1H-pyrazol-3-yl)amino)-6,7-dihydro-5H-cyclopenta[d]pyrimidin-2-yl)pyrrolidine-2-carboxamide] | 180 nM | 5% | 16% | 45% | 6% | 14% | 14% | 38% | 403 nM | 1440 nM
3 | CN(C)C(=O)[C@@H]1CCCN1c1nc2c(c(Nc3cc(C4CCOCC4)[nH]n3)n1)CCC2 [91b, (S)-N,N-dimethyl-1-(4-(5-(tetrahydro-2H-pyran-4-yl)-1H-pyrazol-3-ylamino)-6,7-dihydro-5H-cyclopenta[d]pyrimidin-2-yl)pyrrolidine-2-carboxamide] | 362 nM | 1% | -2% | 7% | 0% | 4% | -2% | 21% | 902 nM | 6310 nM
4 | O=C([C@@H]1CCCN1c1nc2c(c(Nc3cc(C4CCCC4)[nH]n3)n1)CCC2)N1CCC(F)(F)C1 [109b, (S)-(1-(4-((5-cyclopentyl-1H-pyrazol-3-yl)amino)-6,7-dihydro-5H-cyclopenta[d]pyrimidin-2-yl)pyrrolidin-2-yl)(3,3-difluoropyrrolidin-1-yl)methanone] | 0.3 nM | 12% | 39% | 86% | 12% | 33% | 61% | 84% | 1 nM | 11 nM
5 | O=C([C@H]1CCCN1c1nc2c(c(Nc3cc(C4CCCC4)[nH]n3)n1)CCC2)N1CC(F)(F)C(F)(F)C1 [110a, (R)-(1-(4-((5-cyclopentyl-1H-pyrazol-3-yl)amino)-6,7-dihydro-5H-cyclopenta[d]pyrimidin-2-yl)pyrrolidin-2-yl)(3,3,4,4-tetrafluoropyrrolidin-1-yl)methanone] | 80.4 nM | 32% | 64% | 97% | 31% | 61% | 83% | 96% | 171 nM | 189 nM
6 | O=C([C@@H]1CCCN1c1nc2c(c(Nc3cc(C4CCCC4)[nH]n3)n1)CCC2)N1CC(F)(F)C(F)(F)C1 [110b, (S)-(1-(4-(5-cyclopentyl-1H-pyrazol-3-ylamino)-6,7-dihydro-5H-cyclopenta[d]pyrimidin-2-yl)pyrrolidin-2-yl)(3,3,4,4-tetrafluoropyrrolidin-1-yl)methanone] | 0.8 nM | 3% | 21% | 74% | 1% | 18% | 34% | 68% | 2 nM | 41 nM
7 | CC(C)c1cc(Nc2nc(N3CCC[C@H]3C(=O)N3CCC(F)(F)C3)nc3c2CCC3)n[nH]1 [111b, (S)-(3,3-difluoropyrrolidin-1-yl)(1-(4-((5-isopropyl-1H-pyrazol-3-yl)amino)-6,7-dihydro-5H-cyclopenta[d]pyrimidin-2-yl)pyrrolidin-2-yl)methanone] | 0.7 nM | 35% | – | – | – | – | – | – | 2 nM | 53 nM
8 | CC(C)c1cc(Nc2nc(N3CCC[C@@H]3C(=O)N3CC(F)(F)C(F)(F)C3)nc3c2CCC3)n[nH]1 [112a, (R)-(1-(4-((5-isopropyl-1H-pyrazol-3-yl)amino)-6,7-dihydro-5H-cyclopenta[d]pyrimidin-2-yl)pyrrolidin-2-yl)(3,3,4,4-tetrafluoropyrrolidin-1-yl)methanone] | 279 nM | 35% | – | – | – | – | – | – | 628 nM | 670 nM
9 | CC(C)c1cc(Nc2nc(N3CCC[C@H]3C(=O)N3CC(F)(F)C(F)(F)C3)nc3c2CCC3)n[nH]1 [112b, (S)-(1-(4-(5-isopropyl-1H-pyrazol-3-ylamino)-6,7-dihydro-5H-cyclopenta[d]pyrimidin-2-yl)pyrrolidin-2-yl)(3,3,4,4-tetrafluoropyrrolidin-1-yl)methanone] | 1.3 nM | 12% | 36% | 89% | – | 36% | 65% | 86% | 4 nM | 109 nM
10 | O=C(Nc1nccs1)[C@@H]1CCCN1c1nc2c(c(Nc3cc(C4CCCC4)[nH]n3)n1)CCC2 [133b, (S)-1-(4-(5-cyclopentyl-1H-pyrazol-3-ylamino)-6,7-dihydro-5H-cyclopenta[d]pyrimidin-2-yl)-N-(thiazol-2-yl)pyrrolidine-2-carboxamide] | 0.243 nM | 97% | – | – | 95% | – | – | – | 0.038 nM | 0.515 nM
11 | CN1CCN(C(=O)[C@H]2CCCN2c2nc3c(c(Nc4cc(C5CCCC5)[nH]n4)n2)CCC3)CC1 [134a, (R)-(1-(4-(5-cyclopentyl-1H-pyrazol-3-ylamino)-6,7-dihydro-5H-cyclopenta[d]pyrimidin-2-yl)pyrrolidin-2-yl)(4-methylpiperazin-1-yl)methanone] | 44.4 nM | 80% | – | – | 73% | – | – | – | 90 nM | 32 nM
12 | CN1CCN(C(=O)[C@@H]2CCCN2c2nc3c(c(Nc4cc(C5CCCC5)[nH]n4)n2)CCC3)CC1 [134b, (S)-(1-(4-(5-cyclopentyl-1H-pyrazol-3-ylamino)-6,7-dihydro-5H-cyclopenta[d]pyrimidin-2-yl)pyrrolidin-2-yl)(4-methylpiperazin-1-yl)methanone] | 4.8 nM | 26% | 36% | 85% | 16% | 26% | 55% | 77% | 31 nM | 337 nM
13 | CC1(C)CCN(C(=O)[C@@H]2CCCN2c2nc3c(c(Nc4cc(C5CCCC5)n[nH]4)n2)CCC3)CC1 [135b, [(2S)-1-[4-[(3-cyclopentyl-1H-pyrazol-5-yl)amino]-6,7-dihydro-5H-cyclopenta[d]pyrimidin-2-yl]pyrrolidin-2-yl]-(4,4-dimethyl-1-piperidyl)methanone] | 2.5 nM | 11% | 26% | 88% | 12% | 14% | 43% | 82% | 1 nM | 12 nM
14 | CC(C)c1cc(Nc2nc(N3CCC[C@@H]3C(=O)N3CCC(F)(F)C3)nc3c2CCC3)n[nH]1 [139a, (R)-(3,3-difluoropyrrolidin-1-yl)(1-(4-((5-isopropyl-1H-pyrazol-3-yl)amino)-6,7-dihydro-5H-cyclopenta[d]pyrimidin-2-yl)pyrrolidin-2-yl)methanone] | 144 nM | 42% | – | – | – | – | – | – | 258 nM | 669 nM
